Data as given in a flash point compilation (Sun et al. 2020).
Where a name gives a salt, the structure may show the parent alone.

Tests used:
[1] = not given; remark: listed apart in the source

Row | flash point | SMILES | flash point [1]
1 | 68.0 °C | Cc1ccc(C)c(C)c1C [1,2,3,4-TETRAMETHYLBENZENE] | 
2 | 74.0 °C | Cc1ccc(C)c(C)c1C [1,2,3,4-Tetramethylbenzene] | 
3 | 44.0 °C | Cc1cccc(C)c1C [1,2,3-TRIMETHYLBENZENE] | 
4 | 51.0 °C | Cc1cccc(C)c1C [1,2,3-Trimethylbenzene] | 
5 | 55 °C | Cc1cc(C)c(C)cc1C [1,2,4,5-TETRAMETHYLBENZENE] | 
6 | 73.0 °C | Cc1cc(C)c(C)cc1C [1,2,4,5-Tetramethylbenzene] | 
7 | 0.6 °C | COCC(C)OC (centres undefined) [1,2-DIMETHOXYPROPANE] | 
8 | -0.0 °C | COCC(C)OC (centres undefined) [1,2-Dimethoxypropane] | 
9 | 56 °C | CCc1cccc(CC)c1 [1,3-Diethylbenzene] | 
10 | -55.9 °C | C=CC(C)C [1-Butene, 3-methyl-] | 
11 | 132.0 °C | C=CCCCCCCCCCCCCCC [1-HEXADECENE] | 
12 | 27 °C | CCCCCC=O [1-HEXANAL] | 
13 | -6.0 °C | C=C(C)CCCC [1-Hexene, 2-methyl-] | 
14 | -6.0 °C | C=CC(C)CCC (centres undefined) [1-Hexene, 3-methyl-] | 
15 | 22 °C | C=CCCCCCCC [1-NONENE] | 
16 | 26.0 °C | C=CCCCCCCC [1-Nonene] | 
17 | 84 °C | CCCCCCCCO [1-OCTANOL] | 
18 | 8 °C | C=CCCCCCC [1-OCTENE] | 
19 | 148.0 °C | C=CCCCCCCCCCCCCCCCC [1-Octadecene] | 
20 | 86.6 °C | CCCCCCCCO [1-Octanol] | 
21 | 11.5 °C | C=CCCCCCC [1-Octene] | 
22 | 58.0 °C | CCC(C)CCO (centres undefined) [1-Pentanol, 3-methyl-] | 
23 | 83.0 °C | CCCCCCc1ccccc1 [1-Phenylhexane] | 
24 | 143 °C | CCCCCCCCCCCCCCO [1-TETRADECANOL] | 

Row | flash point | SMILES | flash point [1]
25 | 148.0 °C | CCCCCCCCCCCCCCO [1-Tetradecanol] | 
26 | 95.0 °C | Cc1cccc(O)c1C [2,3-Dimethylphenol] | 
27 | -16.0 °C | CC(C)=C(C)C [2-Butene, 2,3-dimethyl-] | 
28 | -34.9 °C | CC(C)Cl [2-Chloropropane] | 
29 | 57 °C | CCC(CC)CO [2-ETHYL-1-BUTANOL] | 
30 | 59.0 °C | CCCCCC(C)O (centres undefined) [2-Heptanol] | 
31 | 35.0 °C | CC(=O)CCC(C)C [2-Hexanone, 5-methyl-] | 
32 | 64.0 °C | CCCCCCCC(C)=O [2-NONANONE] | 
33 | 72.4 °C | CCCCCCCC(C)=O [2-Nonanone] | 
34 | 51.0 °C | CCCCCCC(C)=O [2-OCTANONE] | 
35 | 56.0 °C | CCCCCCC(C)=O [2-Octanone] | 
36 | 12.0 °C | CCC(C)C(C)=O (centres undefined) [2-Pentanone, 3-methyl-] | 
37 | 28 °C | CCC(C)CC(C)(C)CC (centres undefined) [3,3,5-TRIMETHYLHEPTANE] | 
38 | 31 °C | CCC(C)CC(C)(C)CC (centres undefined) [3,3,5-Trimethylheptane] | 
39 | 37.0 °C | CCCCC(=O)CC [3-Heptanone] | 
40 | -1.0 °C | CC(=O)C(C)C [3-Methyl-2-butanone] | 
41 | 66.0 °C | CCCCCCC(=O)CC [3-Nonanone] | 
42 | 13.0 °C | CCC(=O)C(C)C [3-Pentanone, 2-methyl-] | 
43 | 7.0 °C | CCC(=O)CC [3-Pentanone] | 
44 | 48.0 °C | CCCC(=O)CCC [4-HEPTANONE] | 
45 | 34.0 °C | CCCC(=O)CCC [4-Heptanone] | 
46 | 65.0 °C | CCCCC(=O)CCCC [5-Nonanone] | 
47 | 83.0 °C | CCCCCCCCOC(C)=O [Acetic acid octyl ester] | 
48 | 97.5 °C | CCCCCCCc1ccccc1 [Benzene, heptyl-] | 

Row | flash point | SMILES | flash point [1]
49 | 66.0 °C | CCCCCc1ccccc1 [Benzene, pentyl-] | 
50 | 50.0 °C | CCCCOC(=O)CCC [Butanoic acid, butyl ester] | 
51 | -11.0 °C | CCCC=O [Butyraldehyde] | 
52 | 11.2 °C | C[C@H]1CC[C@@H](C)CC1 [Cyclohexane, 1,4-dimethyl-, cis-] | 
53 | 18.0 °C | CCC1CCCCC1 [Cyclohexane, ethyl-] | 
54 | 49.8 °C | CCCCCCCCCC [Decane] | 
55 | 104.0 °C | CCCCCCCCCCO [Decyl alcohol] | 
56 | 13.0 °C | CCOC(C)OCC [Ethane, 1,1-diethoxy-] | 
57 | 19.0 °C | CCCCCC(C)(C)C [Heptane, 2,2-dimethyl-] | 
58 | 6.0 °C | CCCCC(C)CC (centres undefined) [Heptane, 3-methyl-] | 
59 | 6.0 °C | CCCC(C)CCC [Heptane, 4-methyl-] | 
60 | 134.0 °C | CCCCCCCCCCCCCCCC [Hexadecane] | 
61 | 3.0 °C | CCC(C)CC(C)C (centres undefined) [Hexane, 2,4-dimethyl-] | 
62 | 2.0 °C | CC(C)CCC(C)C [Hexane, 2,5-dimethyl-] | 
63 | 7.5 °C | CCC(C)C(C)CC (centres undefined) [Hexane, 3,4-dimethyl-] | 
64 |  | C=COC [Methyl vinyl ether] | -51.00 °C
65 |  | CN [Monomethylamine] | -10.00 °C
66 |  | CCN(CC)c1ccccc1 [N,N-Diethylaniline ] | 85.00 °C
67 |  | CCN1CCOCC1 [N-Ethylmorpholine] | 32.00 °C
68 |  | O=[N+]([O-])c1ccccc1 [Nitrobenzene] | 88.00 °C
69 |  | CC[N+](=O)[O-] [Nitroethane] | 38.00 °C
70 |  | CCCCCCCCCc1ccccc1O [Nonyl phenol] | 141.00 °C
71 |  | CCCCCCCC/C=C\CCCCCCCC(=O)O [Oleic acid] | 189.00 °C
72 |  | CC(=O)Oc1ccccc1 [Phenyl acetate] | 80.00 °C

Row | flash point | SMILES | flash point [1]
73 |  | c1ccc(Oc2ccccc2)cc1 [Phenyl ether] | 96.00 °C
74 |  | O=C1OC(=O)c2ccccc21 [Phthalic anhydride] | 151.00 °C
75 |  | C1CCNCC1 [Piperidine] | 16.00 °C
76 |  | C#CCO [Propargyl alcohol] | 36.00 °C
77 |  | CC1COC(=O)O1 (centres undefined) [Propylene carbonate] | 135.00 °C
78 |  | C=CC [Propylene] | -108.00 °C
79 |  | O=Cc1ccccc1O [Salicylaldehyde] | 78.00 °C
80 |  | C=Cc1ccccc1 [Styrene] | 31.00 °C
81 |  | N#CCCC#N [Succinonitrile] | 132.00 °C
82 |  | CCCCN(CCCC)CCCC [Tri-n-butyl amine] | 86.00 °C
83 |  | OCCOCCOCCO [Triethylene glycol] | 177.00 °C
84 |  | NCCNCCNCCN [Triethylene-tetramine] | 135.00 °C
85 |  | CCCN(CCC)CCC [Tripropylamine] | 41.00 °C
86 |  | C=COC(C)=O [Vinyl acetate] | -8.00 °C
87 |  | C=C(Cl)Cl [Vinylidene chloride] | -15.00 °C
88 |  | O=[N+]([O-])c1cccc2ccccc12 [alpha-Nitronaphthalene] | 164.00 °C
89 |  | CC(=O)OCCC(C)C [iso-Amyl acetate] | 23.00 °C
90 |  | CC(C)CCOC=O [iso-Amyl formate] | 26.00 °C
91 |  | CC(C)Cc1ccccc1 [iso-Butyl benzene] | 52.00 °C
92 |  | CCC(C)C [iso-Pentane] | -51.00 °C
93 |  | C=C(C)OC(C)=O [iso-Propenyl acetate] | 16.00 °C
94 |  | CC(=O)OC(C)C [iso-Propyl acetate] | 4.00 °C
95 |  | CC(C)OC(=O)c1ccccc1 [iso-Propyl benzoate] | 99.00 °C
96 |  | Cc1cccc(O)c1 [m-Cresol] | 94.00 °C

Row | flash point | SMILES | flash point [1]
97 |  | CCCCOC(C)=O [n-Butyl acetate] | 27.00 °C
98 |  | CCCCc1ccccc1 [n-Butyl benzene] | 71.00 °C
99 |  | CCCCCl [n-Butyl chloride] | 7.00 °C
100 |  | CCCC(=O)O [n-Butyric acid] | 66.00 °C
101 |  | CCCC(=O)OC(=O)CCC [n-Butyric anhydride] | 88.00 °C
102 |  | CCCC#N [n-Butyronitrile] | 26.00 °C
103 |  | CCNc1ccccc1 [n-Ethyl aniline] | 85.00 °C
104 |  | CCCCCCO [n-Hexanol] | 60.00 °C
105 |  | CCCO [n-Propyl alcohol] | 15.00 °C
106 |  | Cc1ccccc1O [o-Cresol] | 81.00 °C
107 |  | Clc1ccccc1Cl [o-Dichlorobenzene] | 66.00 °C
108 |  | O=[N+]([O-])c1ccccc1-c1ccccc1 [o-Nitrobiphenyl] | 143.00 °C
109 |  | Oc1ccccc1-c1ccccc1 [o-Phenyl phenol] | 124.00 °C
110 |  | Cc1ccccc1C [o-Xylene] | 32.00 °C
111 |  | Oc1ccc(Cl)cc1 [p-Chlorophenol] | 121.00 °C
112 |  | Cc1ccc(C(C)C)cc1 [p-Cymene] | 47.00 °C
113 |  | C=C(C)C1CC=C(C)CC1 (centres undefined) [p-Mentha-1,8-diene] | 45.00 °C
114 |  | Cc1ccc([N+](=O)[O-])cc1 [p-Nitrotoluene] | 106.00 °C
115 |  | Nc1ccc(N)cc1 [p-Phenylenediamine] | 156.00 °C
116 |  | CCC(C)OC(C)=O (centres undefined) [sec-Butyl acetate] | 31.00 °C
117 |  | CC(C)(C)OOC(=O)c1ccccc1 [tert-Butyl perbenzoate] | 88.00 °C

Row | SMILES | flash point | flash point [1]
118 | NCCCN [1,3-Diaminopropane] | 49.0 °C | 
119 | CCCCOCC(C)O (centres undefined) [1-Butoxy-2-propanol] | 59.0 °C | 
120 | CCCO [1-PROPANOL] | 18 °C | 
121 | CCCCC(C)=O [2-Hexanone] | 23.0 °C | 
122 | C=CCOC(C)=O [ALLYL ACETATE] | 22.2 °C | 
123 | CCCC#N [Butanenitrile] | 18.0 °C | 
124 | CCCCOC(C)=O [Butyl acetate] | 25.0 °C | 
125 | CCCC(=O)O [Butyric acid] | 72.0 °C | 
126 | NC1CCCCC1 [Cyclohexanamine] | 26.5 °C | 
127 | c1ccc(Oc2ccccc2)cc1 [Diphenyl ether] | 115.0 °C | 
128 | CC(Cl)Cl [Ethane, 1,1-dichloro-] | -10.0 °C | 
129 | C=CC(=O)OCC(C)C [Isobutyl acrylate] | 31.2 °C | 
